According to US4313943A, “7-Chloro-2,3-dihydro-5-phenyl-1-propargyl-1H-1,4-benzodiazepine-2-one, and a pharmaceutical composition thereof” (priority 1972, dated 1982):
Entries after “also recorded” stand apart in the source; their conditions may differ.

Key:
[1] = Electrogenesis of various subcortical centers; assay type: in vivo; conditions: in vivo
Method: This study was conducted with test animals weighing between 2.6 and 2.8 kg, following the stereotaxic method of Monnier and Gangloff (Atlas et techniques stereotaxique pour le cerveau du lopin eveille, 1961, Elsevier Pub. Co.), permitting the stimulation of certain subcortical structures as well as a simultaneous detection and recording of their electrical activities, which were compared to that of reference cortical electrodes. In this study, the subcortical centers considered were the caudate nucleus, the dorsal hippocampus, the lateral thalamus, the mesenephalic reticular formation, and the hypothalamic reticular formation. Test compounds 1 and 4 were administered by the intragastric route with an identical dose of 7.5 mg/kg.
Spontaneous activity in the subcortical centers of the unanesthetized animals is characterized by desynchronized activity consisting of high amplitude and relatively slow rhythms (4 to 5 c/sec.), alternating with low amplitude rapid rhythms (12 to 13 c/sec.). Tracings from the hippocampus and caudate nucleus sometimes takes the form of bursts, which is less commonly the case from the thalamus. These may occur at the same time as bursts of rapid spikes arising from the frontal cortex. During periods of arousal, this desynchronized activity is followed by a synchronized theta rhythm (7 to 8 c/sec.) from the hippocampus and caudate nucleus and from the median thalamus, whereas the cortical and reticular electrical activities are transformed into ultra-rapid and low voltage rhythms (30μ volts).

[2] = Acute toxicity in the mouse (oral); conditions: in vivo, mouse (male)
Method: (§1) The test compounds shown in Table 2 were administered orally to male mice and rats in the form of a suspension in a 1% solution of sodium carboxymethyl cellulose. The LD50 (lethal dose 50%) was calculated by the method of Litchfield and Wilcoxon.

[3] = Acute toxicity in the rat (oral); conditions: in vivo
Method: as §1

[4] = Anti-convulsant activity in the mouse (convulsions induced by 1,5-pentamethylenetetrazole); assay type: in vivo; conditions: 30 min before pentamethylenetetrazole s.c.
Method: The inhibition of convulsions induced by 1,5-pentamethylenetetrazole was tested by the Clen method. The test compounds were administered orally to the mice, in the doses shown in Table 3, in the form of suspensions in 1% sodium carboxymethyl cellulose solution, and 30 minutes later the test animals were injected subcutaneously with […] of 1,5-pentamethylenetetrazole. The number of mice protected from lethal extensorial tonic spasms, per group of 10 test animals, was recorded.

[5] = Potentiation of narcosis (hexobarbitone sodium) in the mouse, Winter method; assay type: in vivo; conditions: hexobarbitone sodium 80 mg/kg i.p., control 33.3
Method: The Winter method was used, in which a state of narcosis is induced by the intraperitoneal administration of 80 mg/kg of hexobarbitone sodium, and is assessed by the loss of the righting reflex in the test animal. […] orally to the animals, in doses shown in Table 4, as suspensions in 1% sodium carboxymethyl cellulose solution; and the prolongation of narcosis in the animals thus treated was observed, by comparison with controls which received only the hexobarbitone administration.

[6] = Myorelaxant activity in the mouse (traction test); assay type: in vivo; conditions: after 30 minutes
Method: This was determined by the traction test of Joulon Courvoisier, following Boissier and Simon, in which the mouse is suspended by its front paws to a horizontal metal wire, and the animal's capacity to get up with its hind paws is observed. The test compounds were administered orally to the animals, in the doses shown in Table 5, as suspensions in 1% sodium carboxymethyl cellulose solution; and the animals were tested 30 minutes and 180 minutes after administration. The test animals were deemed to be myorelaxant if unable to get up within 5 seconds.

[7] = Effect on muscular relaxation in mice (30° inclined screen, Randall); assay type: in vivo
Method: The method utilized was the procedure described by Randall (1961) using a 30° inclined screen.

[8] = Convulsions induced by pentamethylenetetrazol in rats; assay type: in vivo
Method: The method utilized was according to the method published by Everett and Richards (1944) and Banziger (1965). The pentamethylenetetrazol was given subcutaneously (125 mg/kg) and the test compounds were given orally suspended in a 1% carboxymethyl cellulose solution.

[9] = Hypnotic activity comparison (Janssen 1959); assay type: in vivo; conditions: Table 11; species not given
Method: Toxicity in test animals to the test compounds in terms of LD50 after oral and intraperitoneal administration was determined according to the procedure of Litchfield and Wilcoxan (1949) and the hypnotic effect on test animals was determined in accordance with the method of Janssen (1959).

[10] = ECoG and sedation in test animals free to move; assay type: in vivo; conditions: unrestricted animals; compound 3 at 10 mg/kg
Method: Some test animals were kept in restraint cases placed in a relatively soundproof room and some were left free to move in metal cases measuring 40×50×30 cm, which were also kept in a relatively quiet environment.
In the test animals which were free to move, the first signs of sedation produced by the intragastric administration of 7.5 mg/kg of compounds 1 and 4 appeared, respectively, at 16 minutes (compound 1) and at 8 minutes (compound 4). […] The duration of the effect was, however, shorter, not exceeding 3 hours under these conditions in contrast to the 5 hour minimum for restricted animals.

[11] = Motor coordination in rats (rotarod, Dunham and Miya 1957); conditions: 68 mg/kg/os

Question: For `CNC1=Nc2ccc(Cl)cc2C(c2ccccc2)=[N+]([O-])C1` [Librium, reference compound], which “EEG activity of the hippocampus” value [1] is on record?
Answer: depressed; also recorded: reduction in the amplitude of the hippocampal rhythm

Question: Which LD50 [2] does the source give for `C#CCN1C(=O)CN=C(c2ccccc2)c2cc([N+](=O)[O-])ccc21` [Compound 2, 7-nitro-2,3-dihydro-5-phenyl-1-propargyl-1H-1,4-benzodiazepin-2-one] here?
Answer: 1880 mg/kg

Question: And the LD50 [3]?
Answer: 876 mg/kg

Question: What about the “No. of Animals Protected” value ([4]; 0.12 mg/kg oral) of the same molecule?
Answer: 1/10

Question: And the “No. of Animals Protected” value ([4]; 0.25 mg/kg oral)?
Answer: 4/10

Question: What about the “No. of Animals Protected” value ([4]; 0.5 mg/kg oral) of the same molecule?
Answer: 9/10

Question: What about the Duration of narcosis ([5]; 0.5 mg/kg oral) of the same molecule?
Answer: 53.4 min

Question: And the Duration of narcosis ([5]; 1.0 mg/kg oral)?
Answer: 94.5 min

Question: And the Duration of narcosis ([5]; 2.0 mg/kg oral)?
Answer: 195.1 min

Question: And the “Percentage of myorelaxant animals” value ([6]; 1.0 mg/kg oral)?
Answer: 10%

Question: What about the “Percentage of myorelaxant animals” value ([6]; 2.0 mg/kg oral) of the same molecule?
Answer: 20%

Question: And the “Percentage of myorelaxant animals” value ([6]; 4.0 mg/kg oral)?
Answer: 40%

Question: What about the “Percentage of myorelaxant animals” value ([6]; 8.0 mg/kg oral) of the same molecule?
Answer: 60%

Question: Which “% Relaxed Animals” value ([7]; 10 mg/kg/os) does the source give for `CN1C(=O)CN=C(c2ccccc2)c2cc(Cl)ccc21` [Compound 3, 7-chloro-1,3-dihydro-1-methyl-5-phenyl-2H-1,4-benzodiazepin-2-one, reference compound] here?
Answer: 20%

Question: What about the ED50 ([7]; Mus musculus, po, muscular relaxation, read-out: ED50 (and C.L.)) of the same molecule?
Answer: 14.1 mg/kg

Question: What about the ED50 ([8]; Rattus norvegicus, oral, protection against pentamethylenetetrazol, read-out: ED50 (and C.L.) (converted)) of the same molecule?
Answer: 7.8 mg/kg

Question: And the “% Protected Animals” value ([8]; Time 90 min.)?
Answer: 20%

Question: What about the “% Protected Animals” value ([8]; Time 120 min.) of the same molecule?
Answer: 10%

Question: What about the “% Protected Animals” value ([8]; Time 180 min.) of the same molecule?
Answer: 0%

Question: What about the “% Protected Animals” value ([8]; Time 240 min.) of the same molecule?
Answer: 0%

Question: What about the ED50 [9] of the same molecule?
Answer: 242 mg/kg

Question: What about the “duration of ECoG effects (three compounds compared)” value [10] of the same molecule?
Answer: about 31/2

Question: What about the “EEG activity of the hippocampus” value ([1]; listed as Valium) of the same molecule?
Answer: depressed; also recorded: reduction in the amplitude of the hippocampal rhythm

Question: What about the “% Uncoordinated Animals” value [11] of the same molecule?
Answer: 50%
